We go through 2 compounds from PMC6272185 (Molecules, 2015).

The IC50 is the point on the concentration scale where inhibition reaches its midpoint.

≈ marks a conversion by molar mass, not a printed value. Where two headings read alike, the source gives them in different places.

Data set [1] has as its system COX-2 expression in RAW 264.7 macrophages. The experiment in a line: COX-2 expression by western blot in LPS-stimulated macrophages. The conditions noted are these: 20 µg/mL, LPS 1 µg/mL, 24 h. The data set is classed as cell-based, murine. The method, then:
(§1) RAW 264.7 macrophages were plated in Petri dishes (2 × 10^7 cells·mL^−1) and incubated for 24 h at 37 °C in 5% CO2 atmosphere. […] The resulted cellular monolayers were washed with PBS 1×, scraped and resuspended in PBS 1×, transferred and centrifuged to obtain cell pellets. The cells were lysed in buffer (10% SDS, 20% glycerol, 5% 2-mercaptoethanol, 2% bromophenol blue and 1 M Tris HCl, pH 6.8, containing protease inhibitors). Protein concentrations were estimated by Bradford method. For western blot analysis, cellular extract samples (60 µg) were submitted to 10% SDS–polyacrylamide gel electrophoresis under […] conditions and transferred to nitrocellulose membranes (Amersham Pharmacia Biotech, Uppsala, Sweden). After blocking with PBS-T (0.5% Tween-20) containing 2.5% (w/v) bovine serum albumin, the membranes were incubated with antibodies against iNOS (1:1000) and COX-2 (1:500) for 1 h at room temperature. After incubation period, the membranes were washed followed by treatment with horseradish peroxidase-conjugated secondary antibody. The resulting membranes were developed using diaminobenzidine/H2O2 as a substrate for peroxidase. In all electrophoresis experiments, a protein standard ladder (Full Range Rainbow-GE Healthcare, Piscataway, NJ, USA) was used to estimate proteins molecular size. Protein bands densitometric analysis was performed using ImageJ software for Windows (NIH, Bethesda, MD, USA). The value for stimulated condition (LPS- treated cells) was set as 1 and other conditions were recalculated correspondingly to allow ratio comparisons.

Data set [2] deals with M. tuberculosis strain H37Rv in RAW 264.7 macrophages. The experiment in a line: Intracellular growth of M. tuberculosis H37Rv in infected macrophages (CFU). In kind it is cell-based, Mycobacterium tuberculosis. To be noted: infected RAW 264.7, MOI 1:1, 4 days, Figure 3C; for MIC50: Mycobacterium tuberculosis, H37RV, 96 h. The procedure:
(§2) RAW 264.7 macrophages were plated (1 × 10^5 cells/well) in antibiotic-free DMEM-F12 medium supplemented with 10% fetal bovine serum and incubated for 24 h. Prior to infection, mycobacterial suspensions were sonicated for 1 minute to disperse clumps and optical densities were adjusted to 0.1. The macrophage cultures were infected at a MOI of 1:1 (macrophage: bacterium). Phagocytosis was allowed to progress for 3 h. After 3 h, extracellular mycobacteria were removed by washing with PBS 1X and the infected cell monolayers were treated for 4 days with chalcone samples or rifampicin. Macrophage viability was monitored by LDH assay and was over 80% in all experiments. On day 4 after infection, cells were lysed cells with 1% saponin to release intracellular bacteria. Lysate aliquots were diluted 10-fold in PBS, plated in triplicates on 7H10 agar plates and incubated at 37 °C. After 21 days, total CFU were determined.

For data set [3], the system named is PGE2 production by LPS-stimulated RAW 264.7 macrophages. The experiment in a line: Inhibition of PGE2 production by LPS-stimulated macrophages (ELISA). The data set is classed as cell-based, murine. To be noted: Mus musculus, RAW264.7, 24 h, read-out: IC50 PGE2. (ELISA stands for enzyme-linked immunosorbent assay.)
The next data set concerns M. tuberculosis H37Rv. The experiment in a line: microbe, parasite or virus in culture. The data set is classed as cell-based, Mycobacterium tuberculosis. The conditions noted are these: for MIC90 / MIC50: Mycobacterium tuberculosis.
For data set [4], the system named is iNOS expression in RAW 264.7 macrophages. In words: iNOS expression by western blot in LPS-stimulated macrophages. In kind it is cell-based, murine. To be noted: 20 µg/mL, LPS 1 µg/mL, 24 h. The method, then:
as §1
On the technique in general: A western blot detects proteins with antibodies after separation by electrophoresis.

For another data set, the system named is M. tuberculosis M299. In words: microbe, parasite or virus in culture. The conditions noted are these: Mycobacterium tuberculosis, M299, 120 h. The data set is classed as cell-based, Mycobacterium tuberculosis.
In data set [5] the test system is NO production by LPS-stimulated RAW 264.7 macrophages. In words: Inhibition of NO production by LPS-stimulated macrophages (Griess). In kind it is cell-based, murine. To be noted: Mus musculus, RAW264.7, 24 h, LPS (1 µg/mL)-stimulated RAW 264.7, 24 h; mean ± SD, n = 3; read-out: IC50 NO. In general terms: The Griess reaction detects nitrite, a stable product of nitric oxide.

For another data set, the system named is M. bovis BCG. In words: microbe, parasite or virus in culture. The data set is classed as cell-based, Mycobacterium bovis BCG. To be noted: for MIC50 / MIC90: Mycobacterium tuberculosis variant bovis BCG, BCG, 168 h; for MIC50: read-out: MIC50 M. bovis BCG; for MIC90: read-out: MIC90 M. bovis BCG.
Data set [6] in a line: Macrophage cytotoxicity, LDH release assay. The data set is classed as cell-based, murine. The conditions noted are these: mouse, RAW 264.7 macrophages stimulated with LPS; LPS-stimulated RAW 264.7, LDH release; mean ± SD, n = 3.
Method: Cytotoxic effects of chalcone samples on RAW 264.7 cell viability in cultures stimulated with LPS were determined using the LDH (lactate dehydrogenase) release assay as previously described [58]. Cytoplasmic enzyme LDH release into cell culture supernatants was detected using a commercial LDH kit (Doles, GO, Brazil). Cell death was expressed as percentage of LDH release, which was calculated using the following formula: percentage of LDH release = 100 × (test LDH release − spontaneous release)/(maximum release − spontaneous release). The maximum release was determined following dissolution of cell monolayers using 1% (vol/vol) Triton X-100. The spontaneous release was determined in supernatants from cultures incubated in the presence of LPS and DMSO, used as a solvent for chalcone samples.
Data set [7] relates to IL-1β production by LPS-stimulated RAW 264.7 macrophages. In words: Inhibition of IL-1β production by LPS-stimulated macrophages (ELISA). The data set is classed as cell-based, murine. To be noted: for inhibition of IL-1β: LPS-stimulated RAW 264.7; for IC50: Mus musculus, RAW264.7, 24 h, read-out: IC50 IL-1β.
Data set [8] concerns TNF-α production by LPS-stimulated RAW 264.7 macrophages. The experiment in a line: Inhibition of TNF-α production by LPS-stimulated macrophages (ELISA). In kind it is cell-based, murine. To be noted: for IC50: Mus musculus, RAW264.7, LPS (1 µg/mL)-stimulated RAW 264.7, 24 h, mean ± SD, n = 3, read-out: IC50 TNF-α.
The subject of data set [9] is RAW 264.7 macrophages infected with M. tuberculosis H37Rv. In words: Toxicity for infected macrophages, LDH assay. In kind it is cell-based, murine. The conditions noted are these: Mus musculus, RAW264.7, 96 h; infected RAW 264.7, 4 days treatment; Figure 3D. The procedure:
Cytotoxic effects of chalcone samples on RAW 264.7 cell viability in cultures stimulated with LPS were determined using the LDH (lactate dehydrogenase) release assay as previously described. Cytoplasmic enzyme LDH release into cell culture supernatants was detected using a commercial LDH kit (Doles, GO, Brazil). Cell death was expressed as percentage of LDH release, which was calculated using the following formula: percentage of LDH release = 100 × (test LDH release − spontaneous release)/(maximum release − spontaneous release). The maximum release was determined following dissolution of cell monolayers using 1% (vol/vol) Triton X-100. The spontaneous release was determined in supernatants from cultures incubated in the presence of LPS and DMSO, used as a solvent for chalcone samples.
as §2

The mark [10] stands for this setting: H37RV, 120 h, read-out: MIC50 M. tuberculosis H37Rv.
[11] abbreviates: Table 5, same values as M. tuberculosis H37Rv in Table 3, read-out: MIC50.

With `O=C(/C=C/c1ccc(Cl)cc1)c1ccccc1` [Chalcone 3], the “abrogation of COX-2 expression” value in [1] was “most potent in abrogation”. For the same compound, the MIC50 in [2] was 12.3 ± 1 µM (≈ 2.99 µg/mL); with M. tuberculosis H37Rv (setting [10]), 13 ± 3.3 µM (≈ 3.16 µg/mL); in the data set on M. tuberculosis H37Rv (setting [11]), 13 ± 3.3 µM (≈ 3.16 µg/mL); in the data set on M. tuberculosis M299, 18.4 ± 3.9 µM (≈ 4.46 µg/mL); with M. bovis BCG, 20.7 ± 6.4 µM (≈ 5.02 µg/mL). Besides, the IC50 was found to be 19.9 ± 2.6 µM in data set [3]; 31.9 ± 4.6 µM in [5]; 400 ± 4.9 µM in data set [6]; 46.6 ± 4.6 µM in data set [7]; 60.5 ± 4.7 µM in data set [8]; 307 ± 5.1 µM in data set [9]. Also, the MIC90 against M. tuberculosis H37Rv (H37RV, 120 h) was determined as 372.7 ± 3.6 µM (≈ 90.5 µg/mL); in the data set with M. tuberculosis M299, 373.9 ± 1.4 µM (≈ 90.7 µg/mL); with M. bovis BCG, 170 ± 5.4 µM (≈ 41.2 µg/mL). For the same compound, the “inhibition of iNOS expression” value in [4] was “almost completely inhibit”. The “inhibition of IL-1β” value in data set [7] is recorded as “potent inhibitors”.

For `O=C(/C=C/c1ccc2c(c1)OCO2)c1ccccc1` [Chalcone 5], the “abrogation of COX-2 expression” value in data set [1] is listed as “most potent in abrogation”. Moreover, the MIC50 in data set [2] worked out at 3.8 ± 0.1 µM (≈ 0.959 µg/mL); with M. tuberculosis H37Rv (setting [10]) it was 12.7 ± 1.9 µM (≈ 3.2 µg/mL); with M. tuberculosis H37Rv (setting [11]), 12.7 ± 1.9 µM (≈ 3.2 µg/mL); against M. tuberculosis M299, 11.7 ± 3.4 µM (≈ 2.95 µg/mL); in the data set on M. bovis BCG, 14.5 ± 6.1 µM (≈ 3.66 µg/mL). Moreover, the “MIC50 intracellular M. tuberculosis H37Rv” value in [2] turned out to be 3.8 ± 0.1 µM (≈ 0.959 µg/mL). Besides, the concentration for half-maximal inhibition (IC50) in data set [3] was 23.1 ± 2.4 µM; in [6], greater than 396 µM; in data set [7], 57.9 ± 4.9 µM; in data set [8], 48.1 ± 7.6 µM; in data set [9], greater than 396 µM. Moreover, the “MIC90 M. tuberculosis H37Rv” value in the data set with M. tuberculosis H37Rv was found to be 303.2 ± 5.4 µM (≈ 76.5 µg/mL). Also, the MIC90 against M. tuberculosis H37Rv (H37RV, 120 h) was found to be 303 ± 5.4 µM (≈ 76.5 µg/mL); with M. tuberculosis M299, 289.6 ± 0.7 µM (≈ 73.1 µg/mL); in the data set on M. bovis BCG it was 75.3 ± 8.4 µM (≈ 19 µg/mL). The “inhibition of iNOS expression” value in [4] was “almost completely inhibit”. Further, in the data set on M. bovis BCG (culture, 7 days, MTT), the “MIC90 M. bovis BCG” value is reported as 75.3 ± 8.4 µM (≈ 19 µg/mL). Further, the “inhibition of IL-1β” value in [7] is on record as “potent inhibitors”. Moreover, in data set [8] (LPS-stimulated RAW 264.7), the “inhibition of TNF-α” value is given as “strongly inhibit”.
